Assays:
[1] = system: esophageal cancer with multiple lymphatic metastases; assay: Case Study 10; format: in vivo, human
Protocol: A person was diagnosed with esophageal cancer with multiple lymphatic metastases. Their blood chemistry profile was normal, but their CEA levels were 6.7 ng/mL. The patient presented symptoms of extreme fatigue, difficult swallowing, chest pains, fever and weight loss. An endoscopy reveled a 4.2 cm×3.7 cm lesion on their esophagus. The tumor had poorly differentiated adenocarcinoma. […] The patient underwent treatments of 200 mg of zinc iodide mixing with 1000 mL of 0.9% sodium chloride solution and in 10 mL of DMSO, 6 times/week for 4 weeks. […] They also stopped steroid treatment. […] After 24 days of the infusion treatment, they began taking 50 mg Zinc Iodide capsules, 3 times/day for 90 days.

[2] = system: adenocarcinoma of the pancreatic head; assay: Case Study 6; format: in vivo, human; set-up: total bilirubin: unit not given here
Protocol: A person had symptoms of weight loss and abdominal pain over a 2-month period. […] At the head, there was a 38-mm×42 mm mass detected. In addition, their intrahepatic billiard tree was dilated. The patient was given 125 mg of Zinc Iodide mixing with 1000 ml of sodium chloride 0.9% and 10 ml of DMSO through infusion daily for 20 days. […] They gained 4 kg of body weight. […] The patient is symptom free.

liver cancer = assay: Case Study 17; format: in vivo, human
Protocol: A person with chronic hepatitis C presented symptoms of abdominal pain. […] They had also been diagnosed with type 2 diabetes three years prior. […] Within 5 days their abdominal pain disappeared, and […] general health improved. […] Their cancer related markers included: AFP: 678 IU/L, GOP: 146 IU/L, GPT: 126 IU/L, and GGT: 124 IU/L. The patient's blood glucose level was 6.7 mmol/L. For the next 90 days, the patient took 50 mg of zinc iodide orally in capsule form 3 times/day. […] Their cancer related markers included: AFP: 107 IU/L, GOP: 195 IU/L, GPT: 69 IU/L, and GGT: 115 IU/L. The patient's blood glucose level was 7.4 mmol/L.

[3] = system: prostate cancer with diffuse metastases; assay: Case Study 7; format: in vivo, human
Protocol: A patient had prostate cancer with diffuse metastases, along with severe leg pain. They underwent hormonal therapy, until they developed severe bone pain. They took voltaren injections and solumedrol infusions to alleviate the pain. […] The patient was weak and lost 5 kg of weight in a month. They began the treatment with 125 mg of Zinc Iodide mixing with 1000 ml of sodium chloride 0.9% and 10 ml of DMSO through infusion. […] Their RBC, hemoglobin and serum calcium levels all normalized; and their PSA decrease dramatically to 40 ng/mL. Their quality of life improved greatly, and they had no symptoms.

lung cancer = assay: Case Study 14; format: in vivo, human
Protocol: A person presented with cough and chest pains that persisted over 6 months. In that time, they also lost 6 kg of weight. In the last 20 days, the patient developed hemoptysis, which lead them to hospitalization. […] They also had total opacification of the right lung. The patient was diagnosed with lung cancer and sent home. The patient was treated with 3-50 mg Zinc Iodide capsules/day for 120 days. After 5 days, their breathing capabilities and cough improved.

[4] = system: pancreatic adenocarcinoma; assay: Case Study 16; format: in vivo, human
Protocol: A person presented symptoms of abdominal pain, nausea, and vomiting. […] They also had multiple metastases on their liver. They were diagnosed with pancreatic adenocarcinoma. Their CA 19-9 (levels of tumor-associated antigens in the blood) was 365 U/mL. The patient was treated through infusion with 200 mg of zinc Iodide mixing with 1000 mL of 0.9% sodium chloride solution and 10 mL of DMSO. The symptoms presented improved after 2 days of treatment. […] After 35 days on the treatment, an ultrasound was taken of the pancreas. The tumor had decreased to 4.3 cm×5.2 cm. Their CA 19-9 levels decreased to 168 U/mL. After 40 treatments, the patient began treatment orally; they were given 50 mg zinc iodide capsules 3 times/day. After 155 days on the oral treatment, a CT of their pancreas was taken. The tumor decreased to 2.4 cm×3.6 cm. The liver metastasis decreased by 50% also.

cholangiocarcinoma = assay: Case Study 9; format: in vivo, human; set-up: total bilirubin: unit not given here
Source text: A person presented with jaundice, abdominal discomfort and lack of appetite. They could not eat or drink properly. Over the last 3 months, their weight decreased by 8 kg. […] There was also a hypodense lesion with an intraductal growth type, sized at 3.6 cm×4.1 cm, on their liver. […] They were diagnosed with cholangiocarcinoma.

Case Study 15 = format: in vivo, human
Protocol: Due to this, they were hospitalized 4-5 times/year. For 3 years, they used a corticosteroid inhaler, bronchodilator, antibiotics and COPD medication to no avail. They were also taking hypertension medication as a result of the COPD treatment. Their blood pressure was 160/96 and Forced Expiratory Volume (FEV1) at 58%. The patient was treated with 3-50 mg Zn Iodide capsules/day. […] […] (FEV1) was 67% and their blood pressure decreased to 130/90. […] Even though they were not taking COPD medication, there were no signs of infections either.

[5] = system: stage IV breast cancer metastasized to lungs and brain; assay: Case Study 3; format: in vivo, human
Protocol: A patient was diagnosed with stage IV breast cancer and invasive ductal carcinoma metastasized to multiple organs (lungs and brain). […] They then took 3 dosages of 50 mg of zinc iodide per day orally. A chest ray was taken 61 days after the start of treatment, as shown the lung metastases decreased by more than 60%.

[6] = MTT assays; salicylic acid alone
[7] = after further 90 days of oral treatment
[8] = 105 days after the beginning of treatment
[9] = 61 days after the start of treatment

For `[I][Zn][I]` [Zinc Iodide, zinc iodide], the lymph nodes ([1]; 105th day) was “clear of metastases”, the fever and pain ([1]; after 3 days) was “no symptoms of fever or pain” and the general health ([1]; after 3 days) was “improved”. The eating and drinking ([1]; within 3 weeks) was “could eat and drink normally”, the “CA 19-9 level” value ([2]; 63rd day) was 46 U/mL and the liver metastases ([2]; 63rd day) was “no indications of liver metastases”. For the same molecule, the symptoms ([2]; after treatment) was “symptom free”, the total bilirubin ([2]; at 10 days, before treatment 78) was 56 and the AST ([2]; at 10 days, before treatment 113) was 73 U/L. The GGT ([2]; at 10 days, before treatment 149) was 149 U/L, the ALT ([2]; at 10 days, before treatment 187) was 73 U/L and the “CA 19-9” value ([2]; at 10 days, before treatment 385) was 184 U/L. The body weight gained ([2]; during oral treatment) was 4 kg, the pain ([2]; within 7 days) was “completely disappeared” and the GOT (liver cancer; after 10 days, GOT before treatment 326) was 224 IU/L. The blood glucose level (liver cancer; after 10 days, before treatment 8.5) was 7.6 mmol/L, the GGT (liver cancer; after 10 days, before treatment 251) was 93 IU/L and the GPT (liver cancer; after 10 days, before treatment 293) was 187 IU/L. The AFP (liver cancer; after 10 days, before treatment 1450) was 1209 IU/L, the AFP (liver cancer; after 21 days) was 678 IU/L and the GGT (liver cancer; after 21 days) was 124 IU/L. It also gave a GOT (liver cancer; after 21 days) of 146 IU/L, a GPT (liver cancer; after 21 days) of 126 IU/L and a blood glucose level (liver cancer; after 21 days) of 6.7 mmol/L. The AFP (liver cancer; [7]) was 107 IU/L, the GGT (liver cancer; [7]) was 115 IU/L and the GOT (liver cancer; [7]) was 195 IU/L. For the same molecule, the GPT (liver cancer; [7]) was 69 IU/L, the blood glucose level (liver cancer; [7]) was 7.4 mmol/L and the abdominal pain (liver cancer; within 5 days) was “disappeared”. For the same molecule, the “RBC, hemoglobin and serum calcium levels” value ([3]; after oral treatment) was “normalized”, the symptoms ([3]; after oral treatment) was “no symptoms” and the “ultrasound and x-ray scans” value ([3]; after oral treatment) was “no abnormalities”. For the same molecule, the PSA ([3]; after oral treatment, before treatment 260) was 40 ng/mL, the pain medication ([3]; by day 20) was “stopped all pain medication” and the RBC count ([3]; day 20, before treatment 3.2) was 4.2 million cells/uL. It also gave a serum calcium levels ([3]; day 20, before treatment 3.5) of 2.5 mmol/L, a hemoglobin ([3]; day 20, before treatment 9) of 10.7 g/dL and a pain improvement ([3]; within 7 days) of 70%. The “breathing capabilities and cough” value (lung cancer; after 5 days) was “improved”, the “clearance of opacification (CT)” value (lung cancer; after 121 days) was 80% and the blood in sputum (lung cancer; by 12 days) was “no longer had blood in their sputum”. The symptoms ([4]; after 2 days of treatment) was “improved”, the “CA 19-9 levels” value ([4]; after 35 days, before treatment 365) was 168 U/mL and the “decrease of liver metastasis” value ([4]; after 155 days on the oral treatment) was 50%. The symptoms ([4]; by the 5th day) was “almost symptom-free”, the GGT levels (cholangiocarcinoma; 105 days) was 784 U/L and the GOT levels (cholangiocarcinoma; 105 days) was 67 U/L. For the same molecule, the GPT levels (cholangiocarcinoma; 105 days) was 54 U/L, the total bilirubin (cholangiocarcinoma; 105 days) was 28 and the symptoms (cholangiocarcinoma; [8]) was “no longer experienced symptoms”. The weight gained (cholangiocarcinoma; [8]) was 4 kg, the GPT (cholangiocarcinoma; after 10 days, before treatment 127) was 97 U/L and the total bilirubin (cholangiocarcinoma; after 10 days, before treatment 139) was 75. It also gave a GOT (cholangiocarcinoma; after 10 days, before treatment 163) of 121 U/L, a GGT (cholangiocarcinoma; after 10 days, before treatment 1410) of 1267 U/L and a GGT (cholangiocarcinoma; at 21 days) of 978 U/L. For the same molecule, the GOT (cholangiocarcinoma; at 21 days) was 85 U/L, the GPT (cholangiocarcinoma; at 21 days) was 193 U/L and the jaundice (cholangiocarcinoma; at 21 days) was “improved”. For the same molecule, the total bilirubin (cholangiocarcinoma; at 21 days) was 56, the digestive health (cholangiocarcinoma; within 5 days) was “improved significantly” and the “Forced Expiratory Volume (FEV1)” value (Case Study 15; 92 days after first treatment) was 75%. For the same molecule, the blood pressure (Case Study 15; 92 days after first treatment) was 125/90, the shortness of breath (Case Study 15; 92 days after first treatment) was “no longer had shortness of breath” and the “need for fast acting bronchodilator inhalers” value (Case Study 15; after 3 days) was “no longer needed fast acting bronchodilator inhalers”. The COPD related symptoms (Case Study 15; at 30 days) was “remarkable improvement”, the “Forced Expiratory Volume (FEV1)” value (Case Study 15; at 30 days, before treatment 58%) was 67% and the blood pressure (Case Study 15; at 30 days, before treatment 160/96) was 130/90. For the same molecule, the COPD related episodes (Case Study 15; in the following 2 months) was “did not have any COPD related episodes”, the “need for corticosteroid inhalers” value (Case Study 15; within 10 days) was “no longer needed corticosteroid inhalers” and the “decrease of lung metastases” value [5, 9] was “more than 60%”. For the same molecule, the “reduction of brain metastases (MRI)” value [5, 9] was 50% and the “symptoms of coughing, headache and nausea” value ([5]; over 12 days of infusion) was “gradually improved”.

In the case of `O=C(O)c1ccccc1O` [salicylic acid], the cellular activity [6] is reported as “no effect on cellular activity”.

Reference: US20180353539A1, “METAL COMPLEXES AS PHARMACEUTICALS FOR TREATMENT AND PREVENTION OF CANCER AND INFLAMMATORY DISEASES” (UNIVERSITY OF SOUTHERN CALIFORNIA, priority 2017, published 2018)
